From patent publication US7517882B2, “Protein kinase inhibitors” (Polaris Group, priority 2006, dated 2009)
pIC50, pKi: −log10 of the molar value.

What was measured:
PC-3 cells = assay: Inhibition of cell growth (MTT), PC-3 cells; settings: Homo sapiens, PC-3, 120 h, read-out: IC50 PC-3
Protocol: (§1) HCT-116 and PC-3 cells were cultured at 37° C. with 5% CO2 and in 10% fetal bovine serum with McCoy's 5A modified medium and F-12 K medium respectively. Cells were plated on 96 well plates at a density of 2,000-4,000/well in the volume of 100 μL medium. […] The control wells contained 1% dimethylsulfoxide only in their medium. After further incubation of three to five days to allow cells grow before the control cells reach confluence, 15 μL/well MTT reagent (5 mg/mL) were added and incubated for 4 h. After the incubation, the medium was removed and the newly generated formazan solubilized with dimethylsulfoxide (100 μL/well) and measured at 540 nm. The absorption data were fit into equation and calculated for IC50 values through use of the program KaleidaGraph (Synergy Software). The fitting equation for IC50 is y=a+b/(1+(x/IC50)); x is the compound concentration, a is the background absorption at 540 nm, and b is the absorption at zero compound concentration.

HCT-116 cells = assay: Inhibition of cell growth (MTT), HCT-116 cells; settings: Homo sapiens, HCT-116, 120 h, read-out: IC50 HCT 116 cells
Protocol: as §1

human CK2 = molecular target: T1, human CK2 (Homo sapiens, UniProt P68400); assay: CK2 protein kinase inhibition assay (spectrophotometric PK/LDH coupled assay); assay type: biochemical
T1 construct: Full Length His-tagged Human CK2 was cloned, expressed, and purified; His tag; made in house; host or cells: E. coli
T1 sequence (P68400 whole entry): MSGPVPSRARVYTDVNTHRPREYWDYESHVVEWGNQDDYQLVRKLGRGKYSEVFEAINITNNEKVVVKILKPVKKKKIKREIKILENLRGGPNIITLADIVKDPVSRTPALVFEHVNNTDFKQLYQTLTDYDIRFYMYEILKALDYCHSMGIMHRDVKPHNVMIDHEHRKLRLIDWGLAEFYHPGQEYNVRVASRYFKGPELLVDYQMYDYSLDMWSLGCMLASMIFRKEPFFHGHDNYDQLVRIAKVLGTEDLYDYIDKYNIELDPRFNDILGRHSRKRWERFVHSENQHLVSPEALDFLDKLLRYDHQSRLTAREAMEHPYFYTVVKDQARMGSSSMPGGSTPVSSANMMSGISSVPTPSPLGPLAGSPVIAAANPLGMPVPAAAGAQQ
Protocol: CK2 protein kinase activity was measured through use of a spectrophotometric PK/LDH coupled assay to detect ATP turnover. Full Length His-tagged Human CK2 was cloned, expressed, and purified from an E. coli expression system. The peptide substrate for CK2 phosphorylation was […] (Genscript Corporation, Piscataway, N.J., USA). […] Prior to the addition of ATP to initiate the phosphorylation reaction, CK2 enzyme was pre-incubated with inhibitors and other assay components for 5 min. Progress of the reaction was continuously monitored by the change in UV/Vis absorbance at 340 nm. […] In the case of very potent binding, tight-binding methods were employed to determine Ki.

| SMILES | pIC50 (PC-3 cells) | pIC50 (HCT-116 cells) | pKi (human CK2) |
| --- | --- | --- | --- |
| O=C1CCCCc2cnn3c(NC4CC4)nc(nc23)Nc2cccc(c2)N1 [Compound 11a, (11,14)3,5N-{cyclopropyl-pyrazolo[1,5-a][1,3,5]triazin-4-ylamino}-(2N,4N)-phenyl-1,5-diaza-cyclotetradeca-8-one] | > 6.00 | > 6.00 |  |
| O=C1CCCCc2cnn3c(Nc4cccnc4)nc(nc23)Nc2cccc(c2)N1 [Compound 11d, (11,14)3,5N-{pyrid-3-yl-pyrazolo[1,5-a][1,3,5]triazin-4-yl-amino}-(2N,4N)-phenyl-1,5-diaza-cyclotetradeca-8-one] | > 6.00 | > 6.00 | > 7.00 |
| CCOc1cccc(Nc2nc3nc4c(cnn24)CCCCC(=O)Nc2cccc(c2)N3)c1 [Compound 11e, (11,14)3,5N-{(3-ethoxyphenyl)-pyrazolo[1,5-a][1,3,5]triazin-4-yl-amino}-(2N,4N)-phenyl-1,5-diaza-cyclotetradeca-8-one] | > 6.00 | > 6.00 | > 7.00 |
| CN1CCC(N(C)C(=O)c2cccc(Nc3nc4nc5c(cnn35)CCCCC(=O)Nc3cccc(c3)N4)c2)C1 (centres unmarked) [Compound 11g, (11,14)3,5N-{3-(3-{[methyl(1-methylpyrrolidin-3-yl)amino]carbonyl}phenyl)-pyrazolo[1,5-a][1,3,5]triazin-4-yl-amino}-(2N,4N)-phenyl-1,5-diaza-cyclotetradeca-8-one] | > 6.00 | > 6.00 | > 7.00 |
| CN1CCN(C(=O)c2cccc(Nc3nc4nc5c(cnn35)CCCCC(=O)Nc3cccc(c3)N4)c2)CC1 [Compound 11h, (11,14)3,5N-{3-(4-methylpiperazin-1-ylcarbonyl)phenyl-pyrazolo[1,5-a][1,3,5]triazin-4-yl-amino}-(2N,4N)-phenyl-1,5-diaza-cyclotetradeca-8-one] | > 6.00 | > 6.00 | > 7.00 |
| CN(C)C1CCN(C(=O)c2cccc(Nc3nc4nc5c(cnn35)CCCCC(=O)Nc3cccc(c3)N4)c2)C1 (centres unmarked) [Compound 11i] | > 6.00 | > 6.00 | > 7.00 |
| CCN(CC)C(=O)c1cccc(Nc2nc3nc4c(cnn24)CCCCC(=O)Nc2cccc(c2)N3)c1 [Compound 11j, (11,14)3,5N-{4-[(3-{3-(diethylamino)carbonyl}phenyl)amino]-pyrazolo[1,5-a][1,3,5]triazin-4-yl-amino}-(2N,4N)-phenyl-1,5-diaza-cyclotetradeca-8-one] | > 6.00 | > 6.00 | > 7.00 |
| CN(C)CCNC(=O)c1cccc(Nc2nc3nc4c(cnn24)CCCCC(=O)Nc2cccc(c2)N3)c1 [Compound 11k, (11,14)3,5N-{4-{[3-({[2-(dimethylamino)ethyl]-amino}carbonyl)phenyl]amino}-pyrazolo[1,5-a][1,3,5]triazin-4-yl-amino}-(2N,4N)-phenyl-1,5-diaza-cyclotetradeca-8-one] | > 6.00 | > 6.00 | > 7.00 |
| O=C1CCCCc2cnn3c(Nc4cccc(C(=O)N5CC(O)C5)c4)nc(nc23)Nc2cccc(c2)N1 [Compound 11l, (11,14)3,5N-{4-({3-[(3-hydroxyazetidin-1-yl)carbonyl]phenyl}amino)-pyrazolo[1,5-a][1,3,5]triazin-4-yl-amino}-(2N,4N)-phenyl-1,5-diaza-cyclotetradeca-8-one] | > 6.00 | > 6.00 | > 7.00 |
| CN1CC(NC(=O)c2cccc(Nc3nc4nc5c(cnn35)CCCCC(=O)Nc3cccc(c3)N4)c2)C1 [Compound 11m] | > 6.00 | > 6.00 | > 7.00 |
| CN(C)CCN(C)C(=O)c1cccc(Nc2nc3nc4c(cnn24)CCCCC(=O)Nc2cccc(c2)N3)c1 [Compound 11n, (11,14)3,5N-{4-[(3-{[[2-(dimethylamino)ethyl](methyl)-amino]carbonyl}phenyl)amino]-pyrazolo[1,5-a][1,3,5]triazin-4-yl-amino}-(2N,4N)-phenyl-1,5-diaza-cyclotetradeca-8-one] | > 6.00 | > 6.00 | > 7.00 |
| CN1CCC(N(C)C(=O)c2cccc(Nc3nc4nc5c(cnn35)CCCCC(=O)Nc3cccc(c3)N4)c2)CC1 [Compound 11o, (11,14)3,5N-{4-[(3-{[methyl(1-methylpiperidin-4-yl)amino]carbonyl}-phenyl)amino]-pyrazolo[1,5-a][1,3,5]triazin-4-yl-amino}-(2N,4N)-phenyl-1,5-diaza-cyclotetradeca-8-one] |  | > 6.00 | > 7.00 |
| CCN(CC)C1CCN(C(=O)c2cccc(Nc3nc4nc5c(cnn35)CCCCC(=O)Nc3cccc(c3)N4)c2)C1 (centres unmarked) [Compound 11p, (11,14)3,5N-{[(3-{[3-(diethylamino)pyrrolidin-1-yl]carbonyl}phenyl)amino]-pyrazolo[1,5-a][1,3,5]triazin-4-yl-amino}-(2N,4N)-phenyl-1,5-diaza-cyclotetradeca-8-one] | > 6.00 | > 6.00 | > 7.00 |
| CCN(CC)C1CN(C(=O)c2cccc(Nc3nc4nc5c(cnn35)CCCCC(=O)Nc3cccc(c3)N4)c2)C1 [Compound 11q, (11,14)3,5N-{[(3-{[3-(diethylamino)azetidin-1-yl]carbonyl}-phenyl)amino]-pyrazolo[1,5-a][1,3,5]triazin-4-yl-amino}-(2N,4N)-phenyl-1,5-diaza-cyclotetradeca-8-one] | > 6.00 | > 6.00 | > 7.00 |
| O=C1CCCCc2cnn3c(Nc4cccc(C(=O)N5CCNCC5)c4)nc(nc23)Nc2cccc(c2)N1 [Compound 11r, (11,14)3,5N-{{[3-(piperazin-1-ylcarbonyl)phenyl]amino}-pyrazolo[1,5-a][1,3,5]triazin-4-yl-amino}-(2N,4N)-phenyl-1,5-diaza-cyclotetradeca-8-one] |  | > 6.00 | > 7.00 |
| CCN(CC)CCN(C)C(=O)c1cccc(Nc2nc3nc4c(cnn24)CCCCC(=O)Nc2cccc(c2)N3)c1 [Compound 11s] |  | > 6.00 | > 7.00 |
| CN(C)C1CCN(C(=O)c2cccc(Nc3cc4nc5c(cnn35)CCCCC(=O)Nc3cccc(c3)N4)c2)C1 (centres unmarked) [Compound 18a, (11,14)3,5N-{[(3-Dimethylamino-pyrrolidine-1-carbonyl)-phen-3-yl]-pyrazolo[1,5-a]pyrimidin-2,4-yl-diamino}-(2N,4N)-phenyl-1,5-diaza-cyclotetradecan-6-one] | > 5.52 | > 5.52 | > 7.00 |
| O=C1CCCCc2cnn3c(NC4CC4)cc(nc23)Nc2cccc(c2)N1 [Compound 18b] | > 5.52 | > 5.52 | > 7.00 |
